Measured values published in PubChem BioAssay (NCI).
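Tested at 5 concentrations; 48 h exposure; 96-well plates; endpoints linearly interpolated, else capped at highest concentration. TGI is the concentration that stops growth completely.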

How the values were obtained:
Assay in all cases: growth of human tumour cells (NCI), 48 h
[1] = tested on: 786-0 renal
[2] = tested on: A498 renal
[3] = tested on: A549 NSCLC
[4] = tested on: ACHN renal
[5] = tested on: BT-549 breast
[6] = tested on: CAKI-1 renal
[7] = tested on: CCRF-CEM leukemia
[8] = tested on: COLO 205 colon
[9] = tested on: DU-145 prostate
[10] = tested on: EKVX NSCLC
[11] = tested on: HCC-2998 colon
[12] = tested on: HCT-116 colon
[13] = tested on: HCT-15 colon
[14] = tested on: HOP-62 NSCLC
[15] = tested on: HOP-92 NSCLC
[16] = tested on: HS 578T breast
[17] = tested on: HT29 colon
[18] = tested on: IGROV1 ovarian
[19] = tested on: K-562 leukemia
[20] = tested on: KM12 colon
[21] = tested on: LOX IMVI melanoma
[22] = tested on: M14 melanoma
[23] = tested on: MCF7 breast
[24] = tested on: MDA-MB-231 breast
[25] = tested on: MDA-MB-435
[26] = tested on: MDA-N
[27] = tested on: MOLT-4 leukemia
[28] = tested on: NCI-H226 lung
[29] = tested on: NCI-H23 lung
[30] = tested on: NCI-H460 lung
[31] = tested on: NCI-H522 lung
[32] = tested on: NCI/ADR-RES ovarian
[33] = tested on: OVCAR-3 ovarian
[34] = tested on: OVCAR-4 ovarian
[35] = tested on: OVCAR-5 ovarian
[36] = tested on: OVCAR-8 ovarian
[37] = tested on: PC-3 prostate
[38] = tested on: RPMI-8226 leukemia
[39] = tested on: RXF 393 renal
[40] = tested on: SF-268 CNS
[41] = tested on: SF-295 CNS
[42] = tested on: SF-539 CNS
[43] = tested on: SK-MEL-2 melanoma
[44] = tested on: SK-MEL-28 melanoma
[45] = tested on: SK-MEL-5 melanoma
[46] = tested on: SK-OV-3 ovarian
[47] = tested on: SN12C renal
[48] = tested on: SNB-19 CNS
[49] = tested on: SR leukemia
[50] = tested on: SW-620 colon
[51] = tested on: T-47D breast
[52] = tested on: TK-10 renal
[53] = tested on: U251 CNS
[54] = tested on: UACC-257 melanoma
[55] = tested on: UACC-62 melanoma
[56] = tested on: UO-31 renal
[57] = tested on: MALME-3M melanoma
[58] = tested on: SNB-75 CNS

## Clc1ccc(-c2ccc(-c3nnc(CCc4nnc(-c5ccc(-c6ccc(Cl)cc6)o5)o4)o3)o2)cc1
[1]
  TGI: > 100 µM
[2]
  TGI: > 92.2 µM
[3]
  TGI: > 100 µM
[4]
  TGI: > 100 µM
[5]
  TGI: > 100 µM
[6]
  TGI: > 100 µM
[7]
  TGI: 16.9 µM
[8]
  TGI: > 100 µM
[9]
  TGI: > 100 µM
[10]
  TGI: > 100 µM
[11]
  TGI: > 100 µM
[12]
  TGI: > 100 µM
[13]
  TGI: > 100 µM
[14]
  TGI: > 100 µM
[15]
  TGI: > 64.1 µM
[16]
  TGI: 86 µM
[17]
  TGI: > 100 µM
[18]
  TGI: > 100 µM
[19]
  TGI: > 61.2 µM
[20]
  TGI: > 100 µM
[21]
  TGI: > 100 µM
[22]
  TGI: > 100 µM
[23]
  TGI: > 100 µM
[24]
  TGI: > 100 µM
[25]
  TGI: > 100 µM
[26]
  TGI: > 100 µM
[27]
  TGI: > 45.3 µM
[28]
  TGI: > 100 µM
[29]
  TGI: > 100 µM
[30]
  TGI: > 100 µM
[31]
  TGI: > 100 µM
[32]
  TGI: > 100 µM
[33]
  TGI: > 100 µM
[34]
  TGI: > 100 µM
[35]
  TGI: > 100 µM
[36]
  TGI: > 100 µM
[37]
  TGI: > 100 µM
[38]
  TGI: > 100 µM
[39]
  TGI: > 56 µM
[40]
  TGI: > 100 µM
[41]
  TGI: > 100 µM
[42]
  TGI: > 100 µM
[43]
  TGI: > 100 µM
[44]
  TGI: > 100 µM
[45]
  TGI: > 100 µM
[46]
  TGI: > 90.4 µM
[47]
  TGI: > 100 µM
[48]
  TGI: > 100 µM
[49]
  TGI: 5.5 µM
[50]
  TGI: > 100 µM
[51]
  TGI: > 100 µM
[52]
  TGI: > 86 µM
[53]
  TGI: > 100 µM
[54]
  TGI: > 100 µM
[55]
  TGI: > 100 µM
[56]
  TGI: > 100 µM

## O=c1c2ccccc2oc2nc3n(c(=O)c12)CCCS3
[1]
  TGI: > 100 µM
[2]
  TGI: > 100 µM
[3]
  TGI: > 100 µM
[4]
  TGI: > 100 µM
[5]
  TGI: > 100 µM
[6]
  TGI: > 100 µM
[7]
  TGI: > 100 µM
[8]
  TGI: > 100 µM
[9]
  TGI: > 100 µM
[10]
  TGI: > 100 µM
[11]
  TGI: > 100 µM
[12]
  TGI: > 100 µM
[13]
  TGI: > 100 µM
[14]
  TGI: > 100 µM
[15]
  TGI: > 100 µM
[16]
  TGI: > 100 µM
[18]
  TGI: > 100 µM
[19]
  TGI: > 100 µM
[20]
  TGI: > 100 µM
[21]
  TGI: > 100 µM
[22]
  TGI: > 100 µM
[57]
  TGI: > 100 µM
[23]
  TGI: > 100 µM
[24]
  TGI: > 100 µM
[25]
  TGI: > 100 µM
[26]
  TGI: > 100 µM
[27]
  TGI: > 100 µM
[28]
  TGI: > 100 µM
[29]
  TGI: > 100 µM
[30]
  TGI: > 100 µM
[31]
  TGI: > 100 µM
[32]
  TGI: > 100 µM
[33]
  TGI: > 100 µM
[34]
  TGI: > 100 µM
[35]
  TGI: > 100 µM
[36]
  TGI: > 100 µM
[37]
  TGI: > 100 µM
[38]
  TGI: > 100 µM
[39]
  TGI: > 100 µM
[40]
  TGI: > 100 µM
[41]
  TGI: > 100 µM
[42]
  TGI: > 100 µM
[43]
  TGI: > 100 µM
[44]
  TGI: > 100 µM
[45]
  TGI: > 100 µM
[46]
  TGI: > 100 µM
[47]
  TGI: > 100 µM
[48]
  TGI: > 100 µM
[58]
  TGI: > 100 µM
[49]
  TGI: > 100 µM
[50]
  TGI: > 100 µM
[51]
  TGI: > 100 µM
[52]
  TGI: > 100 µM
[53]
  TGI: > 100 µM
[54]
  TGI: > 100 µM
[55]
  TGI: > 100 µM
[56]
  TGI: 29.2 µM
